# Assay results taken from paper PMC6778150 (Scientific Reports, 2019).
# Non-standard residues stand in square brackets, D forms with d. Residues, ends and D or L forms follow the SMILES beside them. *: point of attachment. Dnp = O=[N+]([O-])c1ccc(*)c([N+](=O)[O-])c1; 2Abz = Nc1ccccc1C(=O)O
# B1: thermolysin (TLN) (Bacillus thermoproteolyticus) (protein)
# chain: ITGTSTVGVGRGVLGDQKNINTTYSTYYYLQDNTRGNGIFTYDAKYRTTLPGSLWADADNQFFASYDAPAVDAHYYAGVTYDYYKNVHNRLSYDGNNAAIRSSVHYSQGYNNAFWNGSQMVYGDGDGQTFIPLSGGIDVVAHELTHAVTDYTAGLIYQNESGAINEAISDIFGTLVEFYANKNPDWEIGEDVYTPGISGDSLRSMSDPAKYGDPDHYSKRYTGTQDNGGVHINSGIINKAAYLISQGGTHYGVSVVGIGRDKLGKIFYRALTQYLTPTSNFSQLRAAAVQSATDLYGSTSQEVASVKQAFDAVGVK
# notes: purchased Serva, Germany
# How the values were obtained:
# protealysin (PLN) = assay: 2.5 nM PLN in 10 mM NH4HCO3; settings: Serratia proteamaculans, 37 °C, up to 40 min
# thermolysin (TLN) = assay: 7.5 nM TLN in 10 mM NH4HCO3; settings: 37 °C, up to 40 min
# [1] = target: His6-tagged protealysin (Serratia proteamaculans)
# thermolysin = thermolysin (UniProt P00800)
# [2] = format: physicochemical; settings: kinetic, from DMSO stock (6 µl + 500 µl), 50 mM Tris-HCl pH 7.4, room temperature, 24 h, spectrophotometric at 365 nm
# Method: The substrate sorption on labware complicated the measurement of the Abz-RSVIK(Dnp) solubility since the standard approach based on serial dilutions and identification of the linear range of the experimental concentration-dilution factor relationship could not be used. The substrate solubility was evaluated by periodic spectrophotometric quantitation of its dilutions immediately prepared from the stock in DMSO for one day. Up to 130 µM, the substrate solutions remained stable for 24 h (Supplementary Fig. S3); however, starting from 150 µM their optical density decreased with time. Thus, the substrate has reasonable water solubility and can be used in concentrations up to 130 µM.
# The stock solutions (6 µl) in DMSO were supplemented with 500 µl of 50 mM Tris-HCl (pH 7.4). The solutions were incubated at room temperature and the concentration changes were controlled spectrophotometrically for 24 h (Supplementary Fig. S3).
# Figure S3. Solubility of Abz-RSVIK(Dnp). Different substrate concentrations were prepared in microcentrifuge tubes (SSI). The stock solution was diluted with DMSO 1.3-20 times. The resulting solutions (6 µl) were supplemented with 500 µl of 50 mM Tris-HCl (pH 7.4). […] A. Measured substrate concentrations for all dilutions and time periods. B. Relationship between substrate concentration and stock quantity 5 h after dilution. […]
# [3] = substrate: CC[C@H](C)[C@H](NC(=O)[C@@H](NC(=O)[C@H](CO)NC(=O)[C@H](CCCNC(=N)N)NC(=O)c1ccccc1N)C(C)C)C(=O)N[C@@H](CCCCNc1ccc([N+](=O)[O-])cc1[N+](=O)[O-])C(=O)O; assay: Protease activity assay using Abz-RSVIK(Dnp), hydrolysis kinetic parameters, thermolysin; format: biochemical; settings: other: thermolysin 2.5 nM, 37 °C, 50 mM Tris-HCl pH 7.4, substrate 2–130 mM as printed, fluorescence ex 320/em 420 nm, Michaelis-Menten fit, two independent experiments with triplicates
# Method: Desired substrate concentrations were obtained by dilution of the stock in DMSO in 50 mM Tris-HCl (pH 7.4).
# For the activity assay, 100 µl of the substrate solution at 2–130 mM in 50 mM Tris-HCl (pH 7.4) was added into a well of a black 96-well plate. After incubation at 37 °C for 10 min, 25 µl of the substrate were taken away and replaced with 25 µl of the enzyme solution in the same buffer preheated at 37 °C, and time-related fluorescence changes were monitored on an Infinite M200 Pro (Tecan, Switzerland). Measurements were taken at 37 °C every 10 s for 2–5 min at the excitation and emission wavelengths of 320 and 420 nm, respectively. Fluorescence varied linearly for 3 min. The initial hydrolysis rates were determined from the data obtained within the first 95 s of the reaction. The concentrations of PLN and TLN in the reaction mix were 2.5 nM. In parallel with the hydrolysis rate measurements, the control was conducted with the buffer added to a well instead of an enzyme solution. The main goal of this control was to determine the substrate concentration in the reaction mix. After the incubation, the substrate solution was transferred into a spectrophotometer cell to measure its optical density at 365 nm. The concentration calculated from the obtained OD was taken as the initial substrate concentration in the hydrolysis reaction.
# A calibration curve was plotted to convert the obtained relative fluorescence data into the hydrolyzed substrate concentration. […] The course of the reaction was followed by fluorescence changes as described above. The hydrolysis was considered as complete when the fluorescence signal remained steady even after an extra portion of the enzyme was added (Supplementary Fig. S4). After the incubation, serial dilutions of the reaction mix were made, introduced into wells of a 96-well plate and fluorescence was measured as described above. 2,4-Dinitrophenyl was quantified spectrophotometrically in each well as described above. The resulting values were used to plot a calibration curve in coordinates of relative fluorescence units, μM. […]
molecule,measurement,setting,value
Abz-Arg-Ser-Val-Ile-Lys(Dnp),cleaved bond,protealysin (PLN),"Ser-Val, 20 min"
same,not cleaved,protealysin (PLN),products remain undetectable after the time period (40 min)
same,cleaved bond,thermolysin (TLN),"Ser-Val, 20 min"
same,not cleaved,thermolysin (TLN),products remain undetectable after the time period (40 min)
"2-aminobenzoyl-L-arginyl-L-seryl-L-valyl-L-isoleucyl-L-(ε-2,4-dinitrophenyl)lysine (peptide)","KM of hydrolysis of Abz-RSVIK(Dnp) at 37 °C (initial rates fitted to the Michaelis-Menten equation; 2.5 nM enzyme, 50 mM Tris-HCl pH 7.4)",[1],35 μM
same,"KM of hydrolysis of Abz-RSVIK(Dnp) at 37 °C (initial rates fitted to the Michaelis-Menten equation; 2.5 nM enzyme, 50 mM Tris-HCl pH 7.4)",thermolysin,33 μM
"CC[C@H](C)[C@H](NC(=O)[C@@H](NC(=O)[C@H](CO)NC(=O)[C@H](CCCNC(=N)N)NC(=O)c1ccccc1N)C(C)C)C(=O)N[C@@H](CCCCNc1ccc([N+](=O)[O-])cc1[N+](=O)[O-])C(=O)O [Abz-RSVIK(Dnp), 2-aminobenzoyl-L-arginyl-L-seryl-L-valyl-L-isoleucyl-L-(ε-2,4-dinitrophenyl)lysine] (H-[2Abz]RSVIK(Dnp)-OH)",Solubility: concentration from which optical density decreased with time,[2],≥ 150 µM
B1,Km,[3],33 ± 8 µM
same,kcat,[3],7 ± 1 s⁻¹
same,kcat/Km,[3],210000 ± 60000 M⁻¹ s⁻¹
